Data as given in ChEMBL document CHEMBL5528001, “Synthetic product-based approach toward potential antileishmanial drug development” (Eur J Med Chem, 2024).

What was measured:
[1] = Cytotoxicity against mouse J774.A1 cells assessed as reduction in cell viability by MTT assay; type: toxicity, cell-based
Leishmania braziliensis [2] = test: Antileishmanial activity against Leishmania braziliensis promastigotes; type: functional, organism-based
Leishmania major [3] = test: Antileishmanial activity against Leishmania major promastigotes; type: functional, organism-based
[4] = Cytotoxicity against African green monkey Vero cells assessed as reduction in cell growth; type: toxicity, cell-based, Chlorocebus sabaeus
Leishmania major [5] = test: Antileishmanial activity against Leishmania major MHOM/IR/-173 promastigotes assessed as inhibition of parasite growth measured for 24 hrs by resazurin dye-based analysis relative to control; type: functional; set-up: scale not given: the % may be the effect or the level left
Leishmania infantum [6] = test: Antileishmanial activity against Leishmania infantum amastigotes infected in human THP-1 cells assessed as reduction in parasite growth incubated for 72 hrs by high content imaging analysis; type: functional, organism-based; details: THP-1, 72 h
Leishmania tropica = test: Antileishmanial activity against Leishmania tropica promastigotes incubated for 24 hrs measured by alamar blue staining based fluorescence analysis; type: functional, organism-based
Leishmania infantum [7] = test: Antileishmanial activity against Leishmania infantum MCAN/ES/89/IPZ229/1/89 axenic amastigotes assessed as reduction in parasite growth treated for 24 hrs by PI staining based flow cytometry; type: functional, organism-based; details: MCAN/ES/89/IPZ229/1/89, 24 h
[8] = Selectivity index, ratio of CC50 for human HepG2 cells to EC50 for GFP-expressing Leishmania infantum intracellular amastigotes infected in human THP-1 derived macrophage cells; type: toxicity, cell-based; details: read-out: Ratio CC50/EC50
HepG2 [9] = test: Antiproliferative activity against human HepG2 cells assessed as reduction in cell viability incubated for 72 hrs by MTT assay; type: functional, cell-based; details: HepG2, 72 h
HepG2 [10] = test: Cytotoxicity against human HepG2 cells assessed as reduction in cell growth incubated for 48 hrs by MTT assay; type: functional, cell-based; details: HepG2, 48 h
Leishmania infantum [11] = test: Antileishmanial activity against Leishmania infantum MCAN/ES/89/IPZ229/1/89 promastigotes assessed as reduction in parasite growth measured for 48 hrs by resazurin dye based analysis; type: functional, organism-based; details: MCAN/ES/89/IPZ229/1/89, 48 h
Leishmania donovani [12] = test: Antileishmanial activity against Leishmania donovani MHOM/ET/67/HU3 intracellular amastigotes infected in human THP-1 cells assessed as inhibition of parasite growth incubated for 72 hrs by resazurin based colorimetric assay; type: functional, organism-based; details: MHOM/ET/67/HU3, THP-1, 72 h
Leishmania donovani [13] = test: Antileishmanial activity against Leishmania donovani infected in BALB/c mouse model assessed as reduction in parasite growth at 75 mg/kg, po administered for 5 consecutive days; type: functional; set-up: scale not given: the % may be the effect or the level left
Leishmania infantum [14] = test: Antileishmanial activity against Leishmania infantum MHOM/BR/1972/LD intracellular amastigotes infected in mouse J774A.1 macrophages cells assessed as reduction in parasite viability after 72 hrs by MTT based analysis; type: functional, organism-based; details: J774.A1, 72 h
[15] = Cytotoxicity against mouse Peritoneal macrophages assessed as reduction in cell viability incubated for 24 hrs by MTT assay; type: toxicity, cell-based, Peritoneal macrophage
Leishmania infantum [16] = test: Antileishmanial activity against Leishmania infantum promastigotes infected in BALB/c mouse macrophages assessed as reduction in parasite load in spleen at 7.7 mg/kg, po administered twice as day for 5 days relative to control; type: functional; set-up: scale not given: the % may be the effect or the level left; details: time 5 day
Leishmania infantum [17] = test: Antileishmanial activity against Leishmania infantum promastigotes infected in BALB/c mouse macrophages assessed as reduction in parasite load in liver at 7.7 mg/kg, po administered twice as day for 5 days relative to control; type: functional; set-up: scale not given: the % may be the effect or the level left; details: time 5 day
[18] = Cytotoxicity against human THP-1 cells assessed as reduction in cell growth incubated for 3 days by resazurin dye based analysis; type: toxicity; details: time 3 day
[19] = Cytotoxicity against HEK293 cells assessed as reduction in cell growth incubated for 3 days by resazurin dye based analysis; type: toxicity; details: human, time 3 day
Leishmania donovani [20] = test: Antileishmanial activity against Leishmania donovani 9515 promastigotes assessed as inhibition of parasite growth incubated for 48 hrs by resazurin dye based assay; type: functional, organism-based; details: Leishmania donovani, 9515, 48 h
Leishmania donovani [21] = test: Antileishmanial activity against Leishmania donovani promastigotes MHOM/SD/62/1S assessed as inhibition of cell growth measured after 48 hrs by resazurin dye based assay; type: functional, organism-based
Leishmania donovani [22] = test: Antileishmanial activity against Leishmania donovani amastigotes MHOM/SD/62/1S assessed as inhibition of cell growth measured after 48 hrs by resazurin dye based assay; type: functional, organism-based
Leishmania donovani [23] = test: Antileishmanial activity against Leishmania donovani 9515 amastigotes assessed as inhibition of parasite growth incubated for 48 hrs by resazurin dye based assay; type: functional, organism-based; details: Leishmania donovani, 9515, 48 h
[24] = Cytotoxicity against African green monkey Vero cells assessed as reduction in cell viability incubated for 72 hrs by MTT assay; type: toxicity, cell-based, Chlorocebus sabaeus
[25] = Cytotoxicity against human THP-1 cells assessed as inhibition of cell growth measured after 72 hrs by MTT assay; type: toxicity, cell-based
Leishmania infantum [26] = test: Antileishmanial activity against Leishmania infantum axenic amastigotes (MCAN/ES/89/IPZ229/1/89) assessed as inhibition of parasite proliferation measured after 24 hrs by resazurin dye based fluorescence analysis; type: functional, organism-based; details: MCAN/ES/89/IPZ229/1/89, 24 h
Leishmania braziliensis [27] = test: Antileishmanial activity against Leishmania braziliensis MHOM/BR/75/M2904 promastigotes assessed as reduction in cell viability incubated for 48 hrs by resazurin staining based assay; type: functional, organism-based; details: MHOM/BR/75/M2904, 48 h
Leishmania donovani [28] = test: Antileishmanial activity against Leishmania donovani promastigotes infected in golden hamster assessed as reduction in parasite load in spleen at 20 mg/kg administered twice per week for 4 weeks relative to control; type: functional; set-up: scale not given: the % may be the effect or the level left
Leishmania donovani [29] = test: Antileishmanial activity against Leishmania donovani promastigotes infected in golden hamster assessed as reduction in parasite load in liver at 20 mg/kg administered twice per week for 4 weeks relative to control; type: functional; set-up: scale not given: the % may be the effect or the level left
Leishmania infantum [30] = test: Antileishmanial activity against Leishmania infantum MHOM/BR/70/BH46 promastigotes assessed as reduction in parasite growth incubated for 72 hrs by resazurin staining based analysis; type: functional, organism-based; details: MHOM/BR/70/BH46, 72 h
Leishmania infantum [31] = test: Antileishmanial activity against Leishmania infantum MHOM/MA/67/ITMAP263 axenic amastigotes assessed as reduction in parasite viability treated for 24 hrs by PI staining based flow cytometry; type: functional, organism-based; details: MHOM/MA/67/ITMAP263, 24 h
Leishmania amazonensis = test: Antileishmanial activity against Leishmania amazonensis intracellular amastigotes assessed as parasite growth inhibition measured for 72 hrs by resazurin/alamar blue fluorometric assay; type: functional, organism-based
[32] = Selectivity index, ratio of CC50 for cytotoxicity against mouse BMDM cells to IC50 for antileishmanial activity against Leishmania amazonensis intracellular amastigotes; type: toxicity, cell-based; details: read-out: Ratio CC50/IC50
Leishmania donovani [33] = test: Antileishmanial activity against Leishmania donovani MHOM/SD/62/1S amastigotes assessed as reduction in cell growth; type: functional, organism-based
Leishmania major [34] = test: Antileishmanial activity against Leishmania major MHOM/IN/95/9515 amastigotes assessed as reduction in cell growth; type: functional, organism-based
Leishmania donovani [35] = test: Antileishmanial activity against Leishmania donovani Ag83 promastigotes infected in BALB/c mouse assessed as reduction in parasite infection at 5 to 20 mg/kg by propidium iodide staining analysis; type: functional, organism-based
Leishmania major [36] = test: Antileishmanial activity against Leishmania major promastigotes assessed as reduction in parasite growth incubated for 48 hrs by MTT assay; type: functional, organism-based

**Q.** Which IC50 [1] does the source give for `NC(=S)N/N=C(/C=C/c1cccnc1)c1cccc(NC(=O)Nc2ccc(Cl)cc2)c1` here?
**A.** 3.81 µM

**Q.** Which IC50 (Leishmania braziliensis [2]) does the source give for `Cc1cc(OCCCCCNC(C)(C)C)cc2oc3cc(OCCCCCNC(C)(C)C)cc(O)c3c(=O)c12` here?
**A.** 2.4 µM

**Q.** And the IC50 (Leishmania major [3])?
**A.** 5.4 µM

**Q.** What about the IC50 [4] of the same compound?
**A.** 15.5 µM

**Q.** With `O=C(Cn1cnc2ccccc2c1=O)N1CCC2(CC1)OCCO2` as the compound, how does the Activity (Leishmania major [5]) read?
**A.** 35%

**Q.** With `C/C(=N\Nc1nc(-c2ccc(Br)cc2)cs1)c1ccccn1` as the compound, how does the IC50 (Leishmania infantum [6]) read?
**A.** 0.43 µM

**Q.** For `Nc1ccnn1C(=O)C1CCC2(CC1)OOC1(O2)C2CC3CC(C2)CC1C3` (stereo not drawn), which IC50 (Leishmania tropica) is on record?
**A.** 219 µM

**Q.** And the IC50 (Leishmania infantum [7])?
**A.** 219 µM

**Q.** What about the selectivity ratio [8] of the same compound?
**A.** < 5

**Q.** What does the source list for `Nc1nc2ccccc2c2ccccc12`?
**A.** EC50 (HepG2 [9]): < 30 µM; EC50 (HepG2 [10]): 3.07 µM; EC50 (Leishmania infantum [11]): 12.6 µM

**Q.** Which results are given for `CC(C)Oc1cc(OCCCCCCCCn2ccnc2)ccc1NC(=N)c1ccccn1`?
**A.** IC50 (Leishmania donovani [12]): 0.53 µM; Activity (Leishmania donovani [13]): 33%

**Q.** With `NC(=O)N/N=C/c1ccc(Oc2no[n+]([O-])c2-c2ccccc2)cc1` as the compound, how does the EC50 (Leishmania infantum [14]) read?
**A.** 3.6 µM

**Q.** And the CC50 at 24 h [15]?
**A.** 500 µM

**Q.** And the Activity (Leishmania infantum [16])?
**A.** 90%

**Q.** And the Activity (Leishmania infantum [17])?
**A.** 90%

**Q.** What does the source list for `COc1cc(/C=C2/Oc3cc(O)ccc3C2=O)cc(OC)c1`?
**A.** CC50 at 72 h [18]: 96.9 µM; CC50 at 72 h [19]: > 200 µM

**Q.** With `O=[N+]([O-])c1ccc(/C=N\NS(=O)(=O)c2ccc(-c3ccccc3)cc2)o1` as the compound, how does the IC50 (Leishmania donovani [20]) read?
**A.** 1.53 µM

**Q.** What about the IC50 (Leishmania donovani [21]) of the same compound?
**A.** 1.45 µM

**Q.** And the IC50 (Leishmania donovani [22])?
**A.** 2.94 µM

**Q.** And the IC50 (Leishmania donovani [23])?
**A.** 6.29 µM

**Q.** What about the IC50 at 72 h [24] of the same compound?
**A.** 16.4 µM

**Q.** And the IC50 at 72 h [25]?
**A.** 50.4 µM

**Q.** What does the source list for `CCCCCCCCCn1cc(COC(C)=O)[n+](C)n1`?
**A.** IC50 (Leishmania infantum [26]): 5.36 µM; IC50 (Leishmania braziliensis [27]): 4.55 µM; Activity (Leishmania donovani [28]): 59.8%; Activity (Leishmania donovani [29]): 26.88%

**Q.** Which IC50 (Leishmania infantum [30]) does the source give for `Cc1cc(Br)cc2c(/C=N/NC(=S)Nc3ccccc3)c[nH]c12` here?
**A.** 5.6 µM

**Q.** For `CCCCCCCCNCc1ccc2c(c1)C(=O)CC(C)(C)O2`, which IC50 (Leishmania infantum [31]) is on record?
**A.** 25.3 µM

**Q.** And the IC50 (Leishmania amazonensis)?
**A.** 24.6 µM

**Q.** What about the selectivity ratio [32] of the same compound?
**A.** 1.6

**Q.** Which IC50 (Leishmania donovani [33]) does the source give for `Cc1ccc2c(NCCCN(C)C(=O)c3cccc(/C=C/C(=O)c4ccc(C)o4)c3)ccnc2c1` here?
**A.** 1.08 µM

**Q.** And the IC50 (Leishmania major [34])?
**A.** 1.14 µM

**Q.** With `O=C(Nc1cncs1)C(c1ccccc1)c1ccc(Cl)cc1` (stereo not drawn) as the compound, how does the IC50 (Leishmania donovani [35]) read?
**A.** 3.2 µM

**Q.** With `COc1ccc(C(=O)NC(=S)Nc2nc(-c3ccccc3)c(C)s2)cc1` as the compound, how does the IC50 (Leishmania major [36]) read?
**A.** 84.8 µM
